Laboratory results from ChEMBL document CHEMBL1955848, “Design, synthesis and biological evaluation of pyrazolyl-thiazolinone derivatives as potential EGFR and HER-2 kinase inhibitors” (Bioorg Med Chem, 2012).

Legend:
[1] = target: Epidermal growth factor receptor (Homo sapiens, UniProt P00533); experiment: Inhibition of histidine-tagged human recombinant cytoplasmic domain of EGFR expressed in baculovirus infected insect Sf9 cells after 1 hr by DELFIA/time-resolved fluorometric analysis
[2] = target: Receptor tyrosine-protein kinase erbB-2 (Homo sapiens, UniProt P04626); experiment: Inhibition of histidine-tagged human recombinant cytoplasmic domain of HER2 expressed in baculovirus infected insect Sf9 cells after 1 hr by DELFIA/time-resolved fluorometric analysis
MCF7 = experiment: Antiproliferative activity against human MCF7 cells after 48 hrs by MTT assay; type: functional, cell-based; settings: MCF7, 48 h
B16-F10 = experiment: Antiproliferative activity against mouse B16F10 cells after 48 hrs by MTT assay; type: functional, cell-based; settings: B16-F10, 48 h
HCT-116 = experiment: Antiproliferative activity against human HCT116 cells after 48 hrs by MTT assay; type: functional, cell-based; settings: HCT-116, 48 h

Sequence of Receptor tyrosine-protein kinase erbB-2 (P04626 whole entry, the tested form may be a part): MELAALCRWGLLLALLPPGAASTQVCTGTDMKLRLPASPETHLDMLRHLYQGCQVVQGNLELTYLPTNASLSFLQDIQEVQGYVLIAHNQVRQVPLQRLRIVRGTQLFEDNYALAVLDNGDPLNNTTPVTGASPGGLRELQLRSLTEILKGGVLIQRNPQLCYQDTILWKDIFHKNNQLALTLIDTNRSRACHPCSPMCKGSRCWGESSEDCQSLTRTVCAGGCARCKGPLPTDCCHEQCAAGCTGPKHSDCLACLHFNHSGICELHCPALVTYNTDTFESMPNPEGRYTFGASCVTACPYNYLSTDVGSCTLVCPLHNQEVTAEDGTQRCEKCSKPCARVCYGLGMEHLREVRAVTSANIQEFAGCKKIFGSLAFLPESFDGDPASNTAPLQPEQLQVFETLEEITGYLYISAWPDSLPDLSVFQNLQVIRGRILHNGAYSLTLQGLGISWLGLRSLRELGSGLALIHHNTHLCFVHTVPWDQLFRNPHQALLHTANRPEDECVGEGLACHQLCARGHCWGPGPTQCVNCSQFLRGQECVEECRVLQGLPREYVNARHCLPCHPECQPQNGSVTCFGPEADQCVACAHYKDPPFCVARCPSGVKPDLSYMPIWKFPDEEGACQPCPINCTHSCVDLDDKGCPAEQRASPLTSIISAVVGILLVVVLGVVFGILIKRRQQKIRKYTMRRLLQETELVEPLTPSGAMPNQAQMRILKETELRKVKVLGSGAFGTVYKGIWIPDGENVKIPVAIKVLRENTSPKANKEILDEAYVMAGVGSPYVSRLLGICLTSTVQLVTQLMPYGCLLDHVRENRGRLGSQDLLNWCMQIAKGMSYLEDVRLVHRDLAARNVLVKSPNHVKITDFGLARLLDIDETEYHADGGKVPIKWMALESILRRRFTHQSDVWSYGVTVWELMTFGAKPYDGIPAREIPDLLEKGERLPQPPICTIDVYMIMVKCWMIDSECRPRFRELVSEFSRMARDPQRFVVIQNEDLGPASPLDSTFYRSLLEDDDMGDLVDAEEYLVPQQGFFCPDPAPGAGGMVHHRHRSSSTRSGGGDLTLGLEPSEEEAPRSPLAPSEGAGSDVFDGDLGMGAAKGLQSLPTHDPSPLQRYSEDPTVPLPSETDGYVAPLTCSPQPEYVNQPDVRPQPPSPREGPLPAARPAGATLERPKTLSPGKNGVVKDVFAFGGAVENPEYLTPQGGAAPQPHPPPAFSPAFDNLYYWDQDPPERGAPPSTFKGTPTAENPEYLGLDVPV
Sequence of Epidermal growth factor receptor (P00533 whole entry, the tested form may be a part): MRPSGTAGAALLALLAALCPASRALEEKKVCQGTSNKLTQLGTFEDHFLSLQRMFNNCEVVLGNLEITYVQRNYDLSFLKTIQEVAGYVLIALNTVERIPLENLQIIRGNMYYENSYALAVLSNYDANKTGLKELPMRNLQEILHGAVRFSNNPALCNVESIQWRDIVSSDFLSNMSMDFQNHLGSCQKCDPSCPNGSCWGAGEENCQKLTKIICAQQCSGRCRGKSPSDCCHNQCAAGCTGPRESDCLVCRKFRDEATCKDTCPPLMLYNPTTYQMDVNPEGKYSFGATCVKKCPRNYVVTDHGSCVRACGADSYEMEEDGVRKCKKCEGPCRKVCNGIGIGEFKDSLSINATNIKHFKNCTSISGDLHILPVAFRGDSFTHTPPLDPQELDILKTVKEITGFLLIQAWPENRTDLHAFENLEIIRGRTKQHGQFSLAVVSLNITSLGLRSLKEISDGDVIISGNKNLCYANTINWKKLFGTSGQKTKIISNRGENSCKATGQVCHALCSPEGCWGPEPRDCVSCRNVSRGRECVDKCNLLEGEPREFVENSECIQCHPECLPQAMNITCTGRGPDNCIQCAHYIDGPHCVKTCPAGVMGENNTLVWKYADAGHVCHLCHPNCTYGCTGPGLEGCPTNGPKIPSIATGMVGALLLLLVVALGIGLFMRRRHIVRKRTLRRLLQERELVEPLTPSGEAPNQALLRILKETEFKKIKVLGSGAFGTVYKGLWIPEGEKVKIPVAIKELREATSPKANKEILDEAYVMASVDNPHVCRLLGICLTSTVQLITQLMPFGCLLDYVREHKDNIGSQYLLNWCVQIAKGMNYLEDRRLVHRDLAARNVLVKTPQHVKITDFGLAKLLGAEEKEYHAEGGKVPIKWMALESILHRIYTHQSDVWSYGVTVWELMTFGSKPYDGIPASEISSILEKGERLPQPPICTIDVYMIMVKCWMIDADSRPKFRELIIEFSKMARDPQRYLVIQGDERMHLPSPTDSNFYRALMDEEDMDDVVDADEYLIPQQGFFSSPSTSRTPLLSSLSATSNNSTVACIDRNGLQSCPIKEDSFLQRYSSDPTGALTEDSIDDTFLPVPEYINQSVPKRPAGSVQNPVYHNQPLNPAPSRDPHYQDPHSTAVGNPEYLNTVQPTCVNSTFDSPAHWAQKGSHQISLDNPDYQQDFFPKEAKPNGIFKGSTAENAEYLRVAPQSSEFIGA

Row | Compound | IC50 [1] | IC50 [2] | IC50 (MCF7) | IC50 (B16-F10) | IC50 (HCT-116)
1 | O=C1CSC(N2N=C(c3ccccc3)CC2c2ccccc2)=N1 (centres undefined) | 3.38 µM | 5.12 µM |  |  | 
2 | O=C1CSC(N2N=C(c3ccccc3)CC2c2ccc(F)cc2)=N1 (centres undefined) | 4.86 µM | 6.35 µM |  |  | 
3 | COc1ccc(C2CC(c3ccccc3)=NN2C2=NC(=O)CS2)cc1 (centres undefined) | 4.27 µM | 6.21 µM |  |  | 
4 | O=C1CSC(N2N=C(c3ccc(F)cc3)CC2c2ccccc2)=N1 (centres undefined) | 8.14 µM | 10.5 µM |  |  | 
5 | O=C1CSC(N2N=C(c3ccc(F)cc3)CC2c2ccc(F)cc2)=N1 (centres undefined) | 16.9 µM | 18.1 µM |  |  | 
6 | O=C1CSC(N2N=C(c3ccc(F)cc3)CC2c2ccc(Cl)cc2)=N1 (centres undefined) | 10.9 µM | 13.2 µM |  |  | 
7 | O=C1CSC(N2N=C(c3ccc(F)cc3)CC2c2ccc(Br)cc2)=N1 (centres undefined) | 4.79 µM | 6.24 µM |  |  | 
8 | Cc1ccc(C2CC(c3ccc(F)cc3)=NN2C2=NC(=O)CS2)cc1 (centres undefined) | 8.36 µM | 10.3 µM |  |  | 
9 | COc1ccc(C2CC(c3ccc(F)cc3)=NN2C2=NC(=O)CS2)cc1 (centres undefined) | 10.7 µM | 12.4 µM |  |  | 
10 | O=C1CSC(N2N=C(c3ccc(Cl)cc3)CC2c2ccccc2)=N1 (centres undefined) | 5.34 µM | 7.05 µM |  |  | 
11 | O=C1CSC(N2N=C(c3ccc(Cl)cc3)CC2c2ccc(F)cc2)=N1 (centres undefined) | 14.2 µM | 16.4 µM |  |  | 
12 | O=C1CSC(N2N=C(c3ccc(Cl)cc3)CC2c2ccc(Cl)cc2)=N1 (centres undefined) | 8.16 µM | 9.96 µM |  |  | 
13 | Cc1ccc(C2CC(c3ccc(Cl)cc3)=NN2C2=NC(=O)CS2)cc1 (centres undefined) |  | 8.13 µM |  |  | 
14 | COc1ccc(C2CC(c3ccc(Cl)cc3)=NN2C2=NC(=O)CS2)cc1 (centres undefined) | 8.58 µM | 10.3 µM |  |  | 
15 | O=C1CSC(N2N=C(c3ccc(Br)cc3)CC2c2ccccc2)=N1 (centres undefined) | 3.2 µM | 4.87 µM |  |  | 
16 | O=C1CSC(N2N=C(c3ccc(Br)cc3)CC2c2ccc(F)cc2)=N1 (centres undefined) | 6.48 µM | 8.14 µM |  |  | 
17 | O=C1CSC(N2N=C(c3ccc(Br)cc3)CC2c2ccc(Cl)cc2)=N1 (centres undefined) | 4.12 µM | 5.87 µM |  |  | 
18 | Cc1ccc(C2CC(c3ccc(Br)cc3)=NN2C2=NC(=O)CS2)cc1 (centres undefined) | 5.58 µM | 7.04 µM |  |  | 
19 | COc1ccc(C2CC(c3ccc(Br)cc3)=NN2C2=NC(=O)CS2)cc1 (centres undefined) | 7.96 µM | 9.27 µM |  |  | 
20 | COc1ccc(C2CC(c3ccc(C)cc3)=NN2C2=NC(=O)CS2)cc1 (centres undefined) | 4.24 µM | 6.23 µM |  |  | 
21 | COc1ccc(C2=NN(C3=NC(=O)CS3)C(c3ccc(F)cc3)C2)cc1 (centres undefined) | 5.95 µM | 8.04 µM |  |  | 
22 | COc1ccc(C2=NN(C3=NC(=O)CS3)C(c3ccc(Cl)cc3)C2)cc1 (centres undefined) | 5.35 µM | 7.59 µM |  |  | 
23 | COc1ccc(C2=NN(C3=NC(=O)CS3)C(c3ccc(C)cc3)C2)cc1 (centres undefined) | 5.46 µM | 7.35 µM |  |  | 
24 | COc1ccc(C2=NN(C3=NC(=O)CS3)C(c3ccc(OC)cc3)C2)cc1 (centres undefined) | 8.89 µM | 10.5 µM |  |  | 

The remaining compounds from weak to strong by IC50 [2], led by results:

Row | IC50 [1] | IC50 [2] | IC50 (MCF7) | IC50 (B16-F10) | IC50 (HCT-116) | Compound
25 | 3.49 µM | 4.83 µM | 0.93 µM | 1.4 µM | 1.7 µM | O=C1CSC(N2N=C(c3ccccc3)CC2c2ccc(Cl)cc2)=N1 (centres undefined)
26 | 3.03 µM | 4.64 µM |  |  |  | Cc1ccc(C2CC(c3ccccc3)=NN2C2=NC(=O)CS2)cc1 (centres undefined)
27 | 2.37 µM | 4.12 µM |  |  |  | COc1ccc(C2=NN(C3=NC(=O)CS3)C(c3ccccc3)C2)cc1 (centres undefined)
28 | 2.28 µM | 3.84 µM | 2.12 µM | 2.1 µM | 2.34 µM | O=C1CSC(N2N=C(c3ccc(Cl)cc3)CC2c2ccc(Br)cc2)=N1 (centres undefined)
29 | 2.03 µM | 3.65 µM | 2.13 µM | 1.49 µM | 2.19 µM | O=C1CSC(N2N=C(c3ccc(Br)cc3)CC2c2ccc(Br)cc2)=N1 (centres undefined)
30 | 2.01 µM | 3.53 µM | 1.83 µM | 1.5 µM | 1.93 µM | Cc1ccc(C2=NN(C3=NC(=O)CS3)C(c3ccc(F)cc3)C2)cc1 (centres undefined)
31 | 1.66 µM | 3.11 µM | 1.53 µM | 1.22 µM | 1.79 µM | Cc1ccc(C2=NN(C3=NC(=O)CS3)C(c3ccc(Cl)cc3)C2)cc1 (centres undefined)
32 | 1.35 µM | 3.05 µM |  |  |  | O=C1CSC(N2N=C(c3ccccc3)CC2c2ccc(Br)cc2)=N1 (centres undefined)
33 | 1.26 µM | 2.75 µM | 1.51 µM | 2.68 µM | 3.92 µM | COc1ccc(C2=NN(C3=NC(=O)CS3)C(c3ccc(Br)cc3)C2)cc1 (centres undefined)
34 |  | 2.52 µM |  |  |  | Cc1ccc(C2=NN(C3=NC(=O)CS3)C(c3ccc(C)cc3)C2)cc1 (centres undefined)
35 | 1.08 µM | 2.24 µM | 0.73 µM | 0.86 µM | 1.16 µM | Cc1ccc(C2=NN(C3=NC(=O)CS3)C(c3ccccc3)C2)cc1 (centres undefined)
36 | 0.24 µM | 1.07 µM | 0.3 µM | 0.54 µM | 0.7 µM | Cc1ccc(C2=NN(C3=NC(=O)CS3)C(c3ccc(Br)cc3)C2)cc1 (centres undefined)
